From ChEMBL document CHEMBL1201862, “PubChem BioAssay data set” (2004)
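Protocol summary: plate cells (96-well), add compound at 5 concentrations, incubate 48 h, interpolate endpoints linearly. Abbreviation: GI50, concentration required for 50% inhibition of growth.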 The source made the active and inactive calls. Cut-off read from the data, not from the text of the source: active = GI50 up to about 1.1 µM and inactive = higher.

Assays:
Assay in all cases: growth of human tumour cells (NCI), 48 h
MDA-MB-435 = system: MDA-MB-435
HT-29 = system: HT-29
HCC 2998 = system: HCC 2998
SNB-19 = system: SNB-19
M14 = system: M14
A549 = system: A549
NCI/ADR-RES = system: NCI/ADR-RES
UO-31 = system: UO-31
OVCAR-5 = system: OVCAR-5
OVCAR-8 = system: OVCAR-8
MDA-N = system: MDA-N
U-251 = system: U-251
MCF7 = system: MCF7
HOP-62 = system: HOP-62
SR = system: SR
K562 = system: K562
NCI-H522 = system: NCI-H522
TK-10 = system: TK-10
HCT-15 = system: HCT-15
HL-60 = system: HL-60

Compound | GI50 (MDA-MB-435) | GI50 (HT-29) | GI50 (HCC 2998) | GI50 (SNB-19) | GI50 (M14) | GI50 (A549) | GI50 (NCI/ADR-RES) | GI50 (UO-31) | GI50 (OVCAR-5) | GI50 (OVCAR-8) | GI50 (MDA-N) | GI50 (U-251) | GI50 (MCF7) | GI50 (HOP-62) | GI50 (SR) | GI50 (K562) | GI50 (NCI-H522) | GI50 (TK-10) | GI50 (HCT-15) [µM] | GI50 (HL-60)
COC1=C(OC)C(=O)C(Cc2c(C)nc3sccn23)=C(C)C1=O | 13.6 µM (inactive) | 16.4 µM (inactive) | 20.9 µM (inactive) | 16 µM (inactive) | 17 µM (inactive) | 11 µM (inactive) | 14.4 µM (inactive) | 13.6 µM (inactive) | 16.8 µM (inactive) | 14.9 µM (inactive) | 12.7 µM (inactive) | 15.6 µM (inactive) | 20.1 µM (inactive) | 17.5 µM (inactive) | 14.5 µM (inactive) | 18.7 µM (inactive) | 6.64 µM (inactive) | 16.4 µM (inactive) | 16.5 | 
O=c1[nH]c(=O)n(C2CC(O)C(CO)O2)cc1OCCc1ccccc1 (stereo not drawn) | > 100 µM (inactive) | > 100 µM (inactive) |  | > 100 µM (inactive) | > 100 µM (inactive) | > 100 µM (inactive) | > 100 µM (inactive) | > 100 µM (inactive) | > 100 µM (inactive) | > 100 µM (inactive) | > 100 µM (inactive) | > 100 µM (inactive) | > 100 µM (inactive) | > 100 µM (inactive) | > 100 µM (inactive) | > 100 µM (inactive) | > 100 µM (inactive) | > 100 µM (inactive) | > 100 | > 100 µM (inactive)
O=C(CCCc1cccc2[nH]c3c(c12)CN(Cc1ccccc1)CC3)c1ccc(F)cc1 | 40.6 µM (inactive) | 4.39 µM (inactive) | 11.9 µM (inactive) | > 100 µM (inactive) | 42 µM (inactive) | > 95.9 µM (inactive) | > 100 µM (inactive) | > 33.3 µM (inactive) | > 48.1 µM (inactive) | > 100 µM (inactive) | 97.5 µM (inactive) | 49.4 µM (inactive) | > 100 µM (inactive) | > 37.4 µM (inactive) | 13 µM (inactive) | 7.01 µM (inactive) | 32.4 µM (inactive) | > 100 µM (inactive) | 40.3 | 
NCCNS(=O)(=O)c1ccc(N)cc1 | > 100 µM (inactive) | > 100 µM (inactive) |  | > 100 µM (inactive) | > 100 µM (inactive) | > 100 µM (inactive) | > 100 µM (inactive) | > 100 µM (inactive) | > 100 µM (inactive) | > 100 µM (inactive) | > 100 µM (inactive) | > 100 µM (inactive) | > 100 µM (inactive) | > 100 µM (inactive) | 41.4 µM (inactive) | > 100 µM (inactive) | > 100 µM (inactive) | > 100 µM (inactive) | > 100 | 18.7 µM (inactive)
CCOC(=O)/C=C(\C(=O)OCC)n1cc(C)c(=O)n(Cc2cnnn2COCCOC(C)=O)c1=O | 8.97 µM (inactive) | 8.59 µM (inactive) | 16.6 µM (inactive) | 35.2 µM (inactive) | 20.7 µM (inactive) | 21.6 µM (inactive) | 16.1 µM (inactive) | 14.4 µM (inactive) | 17.1 µM (inactive) | 7.03 µM (inactive) | 19.9 µM (inactive) | 17.7 µM (inactive) | 5.31 µM (inactive) | 22.2 µM (inactive) |  | 3.4 µM (inactive) | 1.21 µM (inactive) | 4.91 µM (inactive) | 3.44 | 3.15 µM (inactive)
CCOC(=O)CC(=O)N(c1ccc(OC)cc1)C(C(=O)OC)c1ccccc1 (stereo not drawn) | > 100 µM (inactive) | > 100 µM (inactive) |  | > 100 µM (inactive) | > 100 µM (inactive) | > 100 µM (inactive) | > 100 µM (inactive) | 96.2 µM (inactive) | > 100 µM (inactive) | > 100 µM (inactive) | > 100 µM (inactive) |  | > 100 µM (inactive) | > 100 µM (inactive) | > 100 µM (inactive) | > 100 µM (inactive) | > 100 µM (inactive) | > 100 µM (inactive) | > 100 | 
O=C(Nc1nnc(-c2ccccc2)o1)C(SC(=S)N1CCOCC1)c1ccccc1 (stereo not drawn) | 33.2 µM (inactive) | 26.4 µM (inactive) |  | 40.1 µM (inactive) | 20.4 µM (inactive) | 22.6 µM (inactive) | 14.6 µM (inactive) | 13.6 µM (inactive) | 25.6 µM (inactive) | 31.8 µM (inactive) | 26.3 µM (inactive) | 18.6 µM (inactive) | 27.1 µM (inactive) | 24.1 µM (inactive) | 9.75 µM (inactive) | 19.5 µM (inactive) | 23.2 µM (inactive) | 51.6 µM (inactive) | 5.43 | 12.3 µM (inactive)
Cn1c(COC(=O)NC2CCCCC2)c(COC(=O)NC2CCCCC2)c2ccc3cc(C=O)ccc3c21 | 45.7 µM (inactive) | > 100 µM (inactive) | > 100 µM (inactive) | > 100 µM (inactive) | > 100 µM (inactive) | > 100 µM (inactive) | > 100 µM (inactive) | > 100 µM (inactive) | > 100 µM (inactive) | > 100 µM (inactive) | > 100 µM (inactive) | 27.9 µM (inactive) | > 100 µM (inactive) |  |  | > 100 µM (inactive) |  | > 100 µM (inactive) | > 100 | 38.1 µM (inactive)
C=CC(O)(CBr)CCC(Br)C(C)(C)Cl (stereo not drawn) | > 10 µM (inactive) | > 10 µM (inactive) | > 10 µM (inactive) | > 10 µM (inactive) | > 10 µM (inactive) | > 10 µM (inactive) | > 10 µM (inactive) | > 10 µM (inactive) | > 10 µM (inactive) | > 10 µM (inactive) | > 10 µM (inactive) | > 10 µM (inactive) | > 10 µM (inactive) | > 10 µM (inactive) |  | > 10 µM (inactive) | > 10 µM (inactive) | > 10 µM (inactive) | > 10 | 
OCC(CCc1c[nH]c2ccccc12)c1c[nH]c2ccccc12 (stereo not drawn) | 18.4 µM (inactive) | 17 µM (inactive) |  | 16.7 µM (inactive) | 15.3 µM (inactive) | 17.6 µM (inactive) | 18 µM (inactive) | 12.6 µM (inactive) | 17.4 µM (inactive) | 20.7 µM (inactive) | 16.7 µM (inactive) | 16.7 µM (inactive) | 15.5 µM (inactive) | 20.5 µM (inactive) | 12.1 µM (inactive) | 18.2 µM (inactive) | 16 µM (inactive) | 19.6 µM (inactive) | 14.7 | 8.95 µM (inactive)
N#Cc1cnn2c1n[n+]([O-])c1ccc(Cl)cc12 | 11.9 µM (inactive) | 7.98 µM (inactive) | 1.92 µM (inactive) | 3.11 µM (inactive) | 8.13 µM (inactive) | 14.1 µM (inactive) | 9.68 µM (inactive) | 13.5 µM (inactive) | > 45.1 µM (inactive) | 11.5 µM (inactive) | 8.65 µM (inactive) | 17 µM (inactive) | 28.7 µM (inactive) | 15.2 µM (inactive) |  | 1.71 µM (inactive) | 1.75 µM (inactive) | 57.8 µM (inactive) | 1.97 | 2.86 µM (inactive)
CC(=O)OC[C@@]12CC[C@H]3C(C)(C)CCC[C@]3(C)[C@H]1C[C@@H](C1=CC(=O)O[C@H]1O)O2 | 2.13 µM (inactive) | 2.52 µM (inactive) | 1.61 µM (inactive) | 16.7 µM (inactive) | 2.45 µM (inactive) | 6.97 µM (inactive) | 4.5 µM (inactive) | 2.1 µM (inactive) | 19.7 µM (inactive) | 3.18 µM (inactive) | 2.24 µM (inactive) |  | 1.58 µM (inactive) | 10.4 µM (inactive) | 0.625 µM (active) | 1.48 µM (inactive) | 1.62 µM (inactive) | 3.94 µM (inactive) | 2.05 | 
CC(C)(C)OC(=O)N1[C@@H]2Cc3ccc(N)cc3[C@@]1(C)c1ccccc12 | 16.8 µM (inactive) | 21.6 µM (inactive) | 21.3 µM (inactive) | 44.1 µM (inactive) | 24 µM (inactive) | 35.6 µM (inactive) | 22.4 µM (inactive) | 40.6 µM (inactive) | 42.1 µM (inactive) |  | 21.2 µM (inactive) | 17 µM (inactive) | 34.1 µM (inactive) | 35 µM (inactive) |  | 24.8 µM (inactive) | 12.2 µM (inactive) | 35.5 µM (inactive) | 11.1 | 20.1 µM (inactive)
CCN=C=NCCCN(C)C | > 100 µM (inactive) | > 100 µM (inactive) |  | > 100 µM (inactive) | > 100 µM (inactive) | > 100 µM (inactive) | > 100 µM (inactive) | > 100 µM (inactive) | > 100 µM (inactive) | > 100 µM (inactive) | > 100 µM (inactive) | > 100 µM (inactive) | > 100 µM (inactive) | > 100 µM (inactive) | > 100 µM (inactive) | > 100 µM (inactive) | > 100 µM (inactive) | > 100 µM (inactive) | > 100 | > 100 µM (inactive)
CN(C)c1ccc(C(C#N)N2CCCN(C(C#N)c3ccc(N(C)C)cc3)C2c2ccc(N(C)C)cc2)cc1 (stereo not drawn) | > 100 µM (inactive) | > 100 µM (inactive) |  | > 100 µM (inactive) | > 100 µM (inactive) | > 100 µM (inactive) | > 100 µM (inactive) | > 100 µM (inactive) | > 100 µM (inactive) | > 100 µM (inactive) | > 100 µM (inactive) | > 100 µM (inactive) | > 100 µM (inactive) | > 100 µM (inactive) | > 100 µM (inactive) | > 100 µM (inactive) | > 100 µM (inactive) | > 100 µM (inactive) | > 100 | > 100 µM (inactive)
